Assays:
Format in all cases: cell-based
[1] = system: newly synthesized DNA of cells; assay: Simultaneous EdU and BrdU pulse, incorporation into DNA detected by flow cytometry; settings: for signal detected after simultaneous pulse: simultaneous pulse of EdU 20 μM and BrdU 10 μM, FIG. 3B
Source text: FIG. 3A-1, FIG. 3A-2 and FIG. 3A-3 present a series of graphs showing populations of cells treated with a first pulse label of EdU (10 μm) and a second pulse label of BrdU (10 μm) as detected by flow cytometry. The first graph (FIG. 3A-1) is divided into four quadrants with the first quadrant (Q1) located in the upper left hand corner, the second quadrant (Q2) located in the upper right hand corner, the third quadrant (Q3) located in the lower left hand corner, and the fourth quadrant (Q4) located in the lower right hand corner. Populations of cells in quadrant Q3 (lower left) are negative for both EdU (first pulse) and BrdU (second pulse). Populations of cells in quadrant Q2 (upper right) are positive for both EdU (first pulse) and BrdU (second pulse). FIG. 3A-2 is a graph of EdU vs. DNA cell cycle with gating P5>P1. […] FIG. 3B presents a graph showing populations of cells treated with simultaneous pulse of EdU at a concentration of 20 μM and BrdU at a concentration of 10 μM as detected by flow cytometry. The graph is divided into four quadrants with the first quadrant (Q1) located in the upper left hand corner, the second quadrant (Q2) located in the upper right hand corner, the third quadrant (Q3) located in the lower left hand corner, and the fourth quadrant (Q4) located in the lower right hand corner. Populations of cells in quadrant Q3 (lower left) are negative for both EdU and BrdU. Populations of cells in quadrant Q2 (upper right) are positive for both EdU and BrdU.
FIG. 5A, FIG. 5B, FIG. 5C and FIG. 5D present a series of graphs showing that when cells are treated with EdU and BrdU simultaneously, only a population of DNA labeled with BrdU is detected by flow cytometry. […] The third and fourth graphs (FIGS. 5C and 5D, respectively) show the dual parameter plot of fluorescent nucleotide label vs. DNA cell cycle treated with EdU and BrdU simultaneously. Only BrdU was incorporated into cells treated simultaneously with EdU and BrdU, as shown in the third and fourth graphs. […]

[2] = system: Jurkat T-cell lymphocyte cells; assay: Dual pulse EdU/BrdU labeling of cellular proliferation after colchicine cell cycle block, flow cytometry
Experimental: A standard method of preparing cultured cells for the measurement of newly synthesized DNA (cellular proliferation) is set up according to known conditions for cells to be actively growing by providing the proper media and nutrient requirements. In the present example, Jurkat T-cell lymphocyte cell cultures were diluted one to four to a density of 2×10^5 cells/ml. The cultures were treated with a cell cycle blocking agent, colchicine, which stops proliferation at the G2M stage of the cell cycle, at concentrations of 0, 32 nM, 75 nM, 125 nM, 250 nM, 500 nM and 1 μM for 18 hours. To each condition, the first nucleoside analog, EdU, was then added at 10 μM, a concentration appropriate for incorporation in the DNA of cells undergoing DNA synthesis. The cells were grown in the presence of EdU for one hour. The cells were then centrifuged to pellet the cells and remove the media with blocking agent, and cells had replacement of fresh media. The cell cultures were allowed to recover for two hours before an appropriate amount of the second nucleoside analog, BrdU, was added at a 10 μM concentration, and the cells were grown for one hour. The cells were then harvested, washed, fixed with 70% ice-cold ETOH and stored at 4° C. until use. The cells were then washed and resuspended in 4M HCL for 20 minutes at room temperature. A phosphate/critric acid buffer was added, and the cells washed twice and resuspended in 0.1% TritonX/1% BSA/PBS at 1×10^7/ml. Then, labeling of the EdU was performed by adding click chemistry based reagents, including a solution comprised of CuSO4 in Tris-buffered saline and Alexa Fluor® 647-azide (650 nm excitation maxima/670 nm emission maxima) (Molecular Probes™/Invitrogen™, Carlsbad, Calif.). The cells were then washed with 0.1% TritonX/1% BSA/PBS. […]
A series of result graphs labeled FIGS. 12-1A, 12-1B, 12-1C, 12-1D, 12-1E, 12-2F, 12-2G, 12-2H, 12-2I and 12-2J show populations of cells treated with a first pulse label of EdU (20 μM) and a second pulse label of BrdU (10 μm) as detected by flow cytometry. […]

[3] = system: TF-1a human erythroblast cells; assay: Dual pulse EdU/BrdU labeling of cellular proliferation with varying GM-CSF, flow cytometry
Experimental: A standard method of preparing cultured cells for the measurement of newly synthesized DNA (cellular proliferation) is set up according to known conditions for cells to be actively growing by providing the proper media and nutrient requirements. In the present example, TF-1a human erythroblast cell cultures were diluted one to four to a density of 2×10^5 cells/ml. Culture media contains varying amounts of GM-CSF, or granulocyte-macrophage colony-stimulating factor, at amounts equal to full (2 ng/ml) or ¼ (0.5 ng/ml) recommended concentration of GM-CSF, and no GM-CSF. After these cells had been growing 18 hours, the first nucleoside analog, EdU, was added at 20 μM, a concentration appropriate for incorporation in the DNA of cells undergoing DNA synthesis. The cells were grown in the presence of EdU for three hours. After initial period of growth and without the removal of EdU through the washing of the cells in fresh media, an appropriate amount of the competitive nucleoside analog, BrdU, was added at a 10 μM concentration, and GM-CSF was added at the same time as the BrdU in amounts to equal the full amount recommended for GM-CSF concentration of 2 ng/ml or kept at the same initial concentration of GM-CSF. The cells were grown for six hours. The cells were then harvested, washed, fixed with 70% ice-cold ETOH and stored at 4° C. until use. The cells were then washed and resuspended in 4M HCL for 20 minutes at room temperature. A phosphate/critric acid buffer was added, and the cells washed twice and resuspended in 0.1% TritonX/1% BSA/PBS at 1×10^7/ml. Then, labeling of the EdU was performed by adding click chemistry based reagents, including a solution comprised of CuSO4 in Tris-buffered saline and Alexa Fluor® 647-azide (650 nm excitation maxima/670 nm emission maxima) (Molecular Probes™/Invitrogen™, Carlsbad, Calif.). The cells were then washed with 0.1% TritonX/1% BSA/PBS. After this, labeling of the BrdU was performed using the anti-BrdU antibody FITC conjugate (494 nm excitation maxima/518 nm emission maxima) (Exalpha Biologicals, Inc., Maynard Calif.). To detect DNA content, a nucleic acid dye, DAPI (358 nm excitation maxima/461 nm emission maxima) (Molecular Probes™/Invitrogen™, Carlsbad, Calif.) was added. Detection of the three labels was performed by flow cytometry. To detect the BrdU label, 488 nm excitation was used, with a 530/30 nm bandpass. To detect the EdU label, 633 nm excitation was used, with a 660/20 nm bandpass. To detect DNA content, 355 nm excitation was used, with a 450/50 nm bandpass.

[4] = GM-CSF 0.5 ng/ml with EdU pulse, 0.5 ng/ml with BrdU pulse
[5] = GM-CSF 0.5 ng/ml with EdU pulse, 2 ng/ml with BrdU pulse
[6] = GM-CSF 2 ng/ml (control) with EdU pulse, 2 ng/ml (control) with BrdU pulse, EdU 20 μM 3 h, BrdU 10 μM 6 h
[7] = no GM-CSF with EdU pulse, GM-CSF 2 ng/ml with BrdU pulse

O=c1[nH]c(=O)n([C@H]2C[C@H](O)[C@@H](CO)O2)cc1Br [BrdU, 5-bromo 2′-deoxyuridine]
incorporation into DNA in the presence of both nucleoside analogs ([1]; EdU and BrdU added simultaneously, Example 3, FIGS. 5A-5D): only the BrdU analog is incorporated into the DNA | signal detected after simultaneous pulse [1]: only positive signal detected from the BrdU

C#Cc1cn([C@H]2C[C@H](O)[C@@H](CO)O2)c(=O)[nH]c1=O [EdU, 5-ethynyl 2′-deoxyuridine]
signal detected after simultaneous pulse [1]: no signal detected

COc1cc2c(c(OC)c1OC)-c1ccc(OC)c(=O)cc1[C@@H](NC(C)=O)CC2 [colchicine]
proliferation (EdU and BrdU positive events) vs control ([2]; 32 nM colchicine for 18 hours before the first pulse, FIGS. 12-2F to 12-2J): decreased proliferation | proliferation with both pulses of EdU and BrdU ([2]; all colchicine concentrations (32 nM to 1 μM), 18 hours, FIG. 11): decreased proliferation | recovery of proliferation after removal of colchicine (second pulse of BrdU) ([2]; any colchicine concentration, two hours recovery in fresh media): no recovery

GM-CSF: granulocyte-macrophage colony-stimulating factor, growth factor in TF-1a culture media
proliferative recovery of cells ([3]; 0.5 ng/ml GM-CSF, addition of GM-CSF to 2 ng/ml with the BrdU pulse): does not show any proliferative recovery | % BrdU Pos [3, 4]: 66.3% | % EdU Pos [3, 4]: 57% | % BrdU Pos [3, 5]: 65.1% | % EdU Pos [3, 5]: 57.5% | % BrdU Pos [3, 6]: 72.2% | % EdU Pos [3, 6]: 53.9% | proliferation over control ([3]; dual pulse with 0.5 ng/ml GM-CSF vs 2 ng/ml control): only a slight decrease of proliferation over control | % BrdU Pos [3, 7]: 53% | % EdU Pos [3, 7]: 42.3% | proliferative recovery of cells (BrdU positivity) ([3]; no GM-CSF with EdU pulse, GM-CSF added with just the BrdU pulse): some proliferative recovery

Source: patent US10138510B2, “Dual labeling methods for measuring cellular proliferation” (LIFE TECHNOLOGIES CORPORATION, priority 2008, dated 2018)
